In ChEMBL document CHEMBL3826881, “Evaluation of bisbenzamidines as inhibitors for matriptase-2” (Bioorg Med Chem Lett, 2016):
Values belong to the compound of their own block, whether it stands above or below them.

Columns and labels:
[1] = target: T1, Transmembrane protease serine 6 (Homo sapiens) (UniProt Q8IU80); experiment: Inhibition of human matriptase-2 transfected in HEK cells assessed as residual activity at 40 uM using Boc-Gln-Ala-Arg-AMC as substrate after 20 mins by fluorimetric analysis; assay type: cell-based; details: HEK293
T1 sequence (whole entry): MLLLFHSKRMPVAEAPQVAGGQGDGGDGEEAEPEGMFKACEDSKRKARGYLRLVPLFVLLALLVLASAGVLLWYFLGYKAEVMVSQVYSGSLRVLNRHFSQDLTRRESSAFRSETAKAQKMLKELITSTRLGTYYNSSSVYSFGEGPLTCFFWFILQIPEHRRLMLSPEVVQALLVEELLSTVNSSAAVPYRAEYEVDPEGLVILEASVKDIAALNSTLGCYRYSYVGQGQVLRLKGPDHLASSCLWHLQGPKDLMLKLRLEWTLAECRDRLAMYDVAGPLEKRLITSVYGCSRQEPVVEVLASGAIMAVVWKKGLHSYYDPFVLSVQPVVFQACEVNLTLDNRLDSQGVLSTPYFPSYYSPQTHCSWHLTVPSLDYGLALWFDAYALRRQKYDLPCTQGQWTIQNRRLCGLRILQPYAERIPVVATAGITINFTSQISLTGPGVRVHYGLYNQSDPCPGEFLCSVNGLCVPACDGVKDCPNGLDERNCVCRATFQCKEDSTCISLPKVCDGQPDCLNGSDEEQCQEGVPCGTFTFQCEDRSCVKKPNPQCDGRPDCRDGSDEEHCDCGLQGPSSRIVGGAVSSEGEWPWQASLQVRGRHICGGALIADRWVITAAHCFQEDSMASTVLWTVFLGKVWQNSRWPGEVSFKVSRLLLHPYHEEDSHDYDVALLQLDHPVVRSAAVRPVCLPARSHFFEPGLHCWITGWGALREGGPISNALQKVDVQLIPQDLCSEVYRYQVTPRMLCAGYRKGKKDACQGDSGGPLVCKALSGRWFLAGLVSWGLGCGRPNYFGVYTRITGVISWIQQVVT

[2] = target: T2, Transmembrane protease serine 6 (Homo sapiens, UniProt Q8IU80); experiment: Inhibition of human matriptase-2 transfected in HEK cells using Boc-Gln-Ala-Arg-AMC as substrate after 20 mins by fluorimetric analysis; assay type: cell-based, HEK293
T2 sequence (Q8IU80 whole entry): T1 sequence (whole entry)

[3] = target: Prothrombin (Homo sapiens, UniProt P00734); experiment: Inhibition of human thrombin using Cbz-Gly-Gly-Arg-AMC as substrate after 20 mins by fluorimetric analysis
[4] = Inhibition of bovine trypsin after 15 to 30 mins; set-up: species or system Bos taurus
[5] = target: Coagulation factor X (Bos taurus, UniProt P00743); experiment: Inhibition of bovine factor 10a using Boc-Ile-Glu-Gly-Arg-AMC as substrate after 20 mins by fluorimetric analysis
[6] = target: Trypsin (Homo sapiens, UniProt P07477+P07478+P35030); experiment: Inhibition of human trypsin using Boc-Gln-Ala-Arg-AMC as substrate after 20 mins by fluorimetric analysis; assay type: protein assay
[7] = target: T3, Suppressor of tumorigenicity 14 protein (Homo sapiens, UniProt Q9Y5Y6); experiment: Inhibition of human matriptase using Boc-Gln-Ala-Arg-AMC as substrate after 20 mins by fluorimetric analysis
T3 sequence (Q9Y5Y6 whole entry): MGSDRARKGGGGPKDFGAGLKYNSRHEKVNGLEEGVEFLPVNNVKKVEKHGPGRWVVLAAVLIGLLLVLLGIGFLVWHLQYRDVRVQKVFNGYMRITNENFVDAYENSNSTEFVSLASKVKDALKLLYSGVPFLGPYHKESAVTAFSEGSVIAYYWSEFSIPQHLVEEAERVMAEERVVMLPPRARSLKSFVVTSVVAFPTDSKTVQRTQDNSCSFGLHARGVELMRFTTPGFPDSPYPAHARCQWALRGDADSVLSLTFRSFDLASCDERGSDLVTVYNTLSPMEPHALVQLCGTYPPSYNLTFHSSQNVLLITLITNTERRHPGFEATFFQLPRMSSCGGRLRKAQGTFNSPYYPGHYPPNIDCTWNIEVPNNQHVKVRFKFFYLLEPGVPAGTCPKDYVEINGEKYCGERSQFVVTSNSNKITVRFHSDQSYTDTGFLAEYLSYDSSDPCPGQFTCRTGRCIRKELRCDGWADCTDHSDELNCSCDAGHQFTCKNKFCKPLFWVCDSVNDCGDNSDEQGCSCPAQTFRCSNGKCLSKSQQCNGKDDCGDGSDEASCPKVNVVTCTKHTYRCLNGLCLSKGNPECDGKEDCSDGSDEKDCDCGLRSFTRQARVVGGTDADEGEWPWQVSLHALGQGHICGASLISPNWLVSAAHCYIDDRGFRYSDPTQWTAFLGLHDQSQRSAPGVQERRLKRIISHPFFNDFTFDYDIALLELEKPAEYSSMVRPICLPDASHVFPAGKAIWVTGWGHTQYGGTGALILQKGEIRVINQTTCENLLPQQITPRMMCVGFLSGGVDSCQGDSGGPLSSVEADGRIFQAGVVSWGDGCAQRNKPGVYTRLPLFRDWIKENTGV

[8] = target: T1, Transmembrane protease serine 6 (Homo sapiens); experiment: Inhibition of human matriptase-2 transfected in HEK cells assessed as residual activity at 5 uM using Boc-Gln-Ala-Arg-AMC as substrate after 20 mins by fluorimetric analysis; assay type: cell-based; details: HEK293

Sequence of Coagulation factor X (P00743 41-180 limits assumed): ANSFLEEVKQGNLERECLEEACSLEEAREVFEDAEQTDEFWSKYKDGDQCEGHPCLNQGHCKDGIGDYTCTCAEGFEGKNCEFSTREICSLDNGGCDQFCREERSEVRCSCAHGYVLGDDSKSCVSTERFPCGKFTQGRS
Sequence of Coagulation factor X (P00743 234-492 limits assumed): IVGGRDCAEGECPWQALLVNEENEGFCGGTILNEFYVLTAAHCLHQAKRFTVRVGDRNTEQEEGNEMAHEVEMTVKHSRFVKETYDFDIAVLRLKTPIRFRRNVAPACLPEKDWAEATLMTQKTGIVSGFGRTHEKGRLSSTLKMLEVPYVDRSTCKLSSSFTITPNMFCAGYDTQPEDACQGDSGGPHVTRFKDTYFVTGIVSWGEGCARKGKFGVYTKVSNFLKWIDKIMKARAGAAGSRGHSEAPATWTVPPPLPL

- Activity [1]: 49%
SMILES: N=C(N)c1ccc(NC(=O)CCCCCCCCCCC(=O)Nc2ccc(C(=N)N)cc2)cc1

- Activity [1]: 57%
SMILES: N=C(N)c1ccc(NC(=O)CCCCC(=O)Nc2ccc(C(=N)N)cc2)cc1

- Activity [1]: 62%
SMILES: N=C(N)c1ccc(NC(=O)CCCCCCC(=O)Nc2ccc(C(=N)N)cc2)cc1

- Activity [1]: 23%
SMILES: N=C(N)c1ccc(NCCNc2ccc(C(=N)N)cc2)cc1

- Activity [1]: 78%
SMILES: N=C(N)c1ccc(NC(=O)CCCCC(=O)Nc2cccc(C(=N)N)c2)cc1

- Ki [2]: 6230 nM
- Ki [3]: 15800 nM
- Ki [5]: 52300 nM
- Activity [1]: 17%
- Ki [6]: 1420 nM
- Ki [7]: 492 nM
SMILES: N=C(N)c1ccc(NC(=O)C(=O)Nc2ccc(C(=N)N)cc2)cc1

- Activity [1]: 40%
SMILES: N=C(N)c1ccc(NC(=O)CCC(=O)Nc2ccc(C(=N)N)cc2)cc1

- Activity [1]: 27%
SMILES: N=C(N)c1ccc(NCCCCNc2ccc(C(=N)N)cc2)cc1

- Ki [2]: 4390 nM
- Ki [3]: 5300 nM
- Ki [5]: 7830 nM
- Activity [1]: 15%
- Ki [6]: 1900 nM
- Ki [7]: 397 nM
SMILES: N=C(N)c1ccc(N2CCCN(c3ccc(C(=N)N)cc3)CC2)cc1

- Ki [2]: 1160 nM
- Ki [3]: 10100 nM
- Ki [5]: 20000 nM
- Activity [1]: 5.3%
- Ki [6]: 513 nM
- Ki [7]: 719 nM
SMILES: N=C(N)c1ccc(N2CCN(c3ccc(C(=N)N)cc3)CC2)cc1

- Activity [1]: 45%
SMILES: N=C(NC1CC1)c1ccc(N2CCCN(c3ccc(C(=N)NC4CC4)cc3)CC2)cc1

- Activity [1]: 46%
SMILES: N=C(N)c1ccc(COc2ccccc2OCc2ccc(C(=N)N)cc2)cc1

- Ki [2]: 5200 nM
- Ki [3]: 279 nM
- Ki [5]: 13700 nM
- Activity [1]: 19%
- Ki [6]: 221 nM
- Ki [7]: 2280 nM
SMILES: N=C(N)c1ccc(OCc2ccccc2COc2ccc(C(=N)N)cc2)cc1

- Ki [2]: 1640 nM
- Ki [3]: 317 nM
- Ki [5]: 1290 nM
- Activity [1]: 8.6%
- Ki [6]: 192 nM
- Ki [7]: 526 nM
SMILES: N=C(N)c1ccc(NCCCCCCCCNc2ccc(C(=N)N)cc2)cc1

- Activity [8]: 93%
- Activity [1]: > 50%
SMILES: N=C(N)c1ccc(NC(=O)c2ccc(C(=O)Nc3ccc(C(=N)N)cc3)cc2)cc1

Second part, the compound before the results:

SMILES: N=C(N)c1ccc(NC(=O)CCCC(=O)Nc2ccc(C(=N)N)cc2)cc1
- Activity [1]: 68%

SMILES: N=C(N)c1ccc(OCc2cccc(COc3ccc(C(=N)N)cc3)c2)cc1
- Activity [1]: 17%

SMILES: N=C(N)c1ccc(NC(=O)CCCCCCCCC(=O)Nc2ccc(C(=N)N)cc2)cc1
- Activity [1]: 33%

SMILES: CN(CCNc1ccc(C(=N)N)cc1)c1ccc(C(=N)N)cc1
- Activity [1]: 21%

SMILES: N=C(N)c1ccc(OCc2ccc(COc3ccc(C(=N)N)cc3)cc2)cc1
- Ki [2]: 5700 nM
- Ki [3]: 1160 nM
- Ki [4]: 1300 nM
- Ki [5]: 327 nM
- Activity [1]: 16%
- Ki [6]: 316 nM
- Ki [7]: 816 nM

SMILES: N=C(N)c1ccc(NC(=O)CCCCCCCC(=O)Nc2ccc(C(=N)N)cc2)cc1
- Activity [1]: 49%

SMILES: N=C(N)c1ccc(NCCCCCCCNc2ccc(C(=N)N)cc2)cc1
- Ki [2]: 3680 nM
- Ki [3]: 499 nM
- Ki [5]: 391 nM
- Activity [1]: 16%
- Ki [6]: 244 nM
- Ki [7]: 558 nM

SMILES: N=C(N)c1ccc(NCCCCCCNc2ccc(C(=N)N)cc2)cc1
- Activity [1]: 21%

SMILES: N=C(N)c1ccc(NC(=O)CCCCCC(=O)Nc2ccc(C(=N)N)cc2)cc1
- Activity [1]: 63%

SMILES: N=C(N)c1ccc(NC(=O)c2cccc(C(=O)Nc3ccc(C(=N)N)cc3)c2)cc1
- Activity [1]: 32%

SMILES: N=C(N)c1ccc(NCCCNc2ccc(C(=N)N)cc2)cc1
- Activity [1]: 55%

SMILES: CN(CCCN(C)c1ccc(C(=N)N)cc1)c1ccc(C(=N)N)cc1
- Activity [1]: 23%
